Results taken from PubChem BioAssay (NCI).
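48-hour exposure; five concentrations; linearly interpolated endpoints. At the GI50, growth is halved. At the TGI there is no net growth.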

Experiments:
Test in all cases: NCI anticancer screen, dose series, 48 h
CCRF-CEM leukemia = test system: CCRF-CEM leukemia
HL-60(TB) leukemia = test system: HL-60(TB) leukemia
HT29 colon = test system: HT29 colon
IGROV1 ovarian = test system: IGROV1 ovarian
MALME-3M melanoma = test system: MALME-3M melanoma
MCF7 breast = test system: MCF7 breast
MDA-MB-231 breast = test system: MDA-MB-231 breast
NCI/ADR-RES ovarian = test system: NCI/ADR-RES ovarian
OVCAR-4 ovarian = test system: OVCAR-4 ovarian
OVCAR-5 ovarian = test system: OVCAR-5 ovarian
UACC-257 melanoma = test system: UACC-257 melanoma
UACC-62 melanoma = test system: UACC-62 melanoma

SMILES: CSc1ccc(/C=C2\N=C(c3ccccc3)N(c3nc4ccc(Sc5ccccc5)cc4[nH]3)C2=O)cc1
- TGI (CCRF-CEM leukemia): 86.8 µM
- TGI (HL-60(TB) leukemia): 49.4 µM
- TGI (HT29 colon): 50.4 µM
- TGI (IGROV1 ovarian): > 100 µM
- TGI (MALME-3M melanoma): > 58.5 µM
- TGI (MCF7 breast): 45.9 µM
- TGI (MDA-MB-231 breast): 55.5 µM
- TGI (NCI/ADR-RES ovarian): 72.3 µM
- TGI (OVCAR-4 ovarian): > 100 µM
- TGI (OVCAR-5 ovarian): 83.7 µM
- TGI (UACC-257 melanoma): 55.6 µM
- TGI (UACC-62 melanoma): 39.1 µM

SMILES: COC(=O)c1cc(C#Cc2cc(OC)ccc2OC)ccc1OC
- GI50 (CCRF-CEM leukemia): 36.8 µM
- TGI (CCRF-CEM leukemia): > 100 µM
- TGI (HL-60(TB) leukemia): > 100 µM
- TGI (HT29 colon): > 100 µM
- TGI (IGROV1 ovarian): > 100 µM
- TGI (MALME-3M melanoma): > 100 µM
- TGI (MCF7 breast): > 100 µM
- TGI (MDA-MB-231 breast): > 100 µM
- TGI (NCI/ADR-RES ovarian): > 100 µM
- TGI (OVCAR-4 ovarian): > 100 µM
- TGI (OVCAR-5 ovarian): > 100 µM
- TGI (UACC-257 melanoma): > 100 µM
- GI50 (UACC-62 melanoma): 29.3 µM
- TGI (UACC-62 melanoma): > 100 µM

SMILES: CCC(CCCC[C@@H]1CC[C@H]2CC(=O)C[C@@H]12)OC (stereo not given in full)
- TGI (CCRF-CEM leukemia): > 100 µM
- TGI (HL-60(TB) leukemia): > 100 µM
- TGI (HT29 colon): > 100 µM
- TGI (IGROV1 ovarian): > 100 µM
- TGI (MALME-3M melanoma): > 100 µM
- TGI (MCF7 breast): > 100 µM
- TGI (MDA-MB-231 breast): > 100 µM
- TGI (NCI/ADR-RES ovarian): > 100 µM
- TGI (OVCAR-4 ovarian): > 100 µM
- TGI (OVCAR-5 ovarian): > 100 µM
- TGI (UACC-257 melanoma): > 100 µM
- TGI (UACC-62 melanoma): > 100 µM

SMILES: CC(=O)Nc1ccc2[nH]c(-c3cccc(F)c3)cc(=O)c2c1
- TGI (CCRF-CEM leukemia): > 100 µM
- TGI (HL-60(TB) leukemia): 80.7 µM
- TGI (HT29 colon): > 100 µM
- TGI (IGROV1 ovarian): > 100 µM
- TGI (MALME-3M melanoma): > 100 µM
- TGI (MCF7 breast): > 100 µM
- TGI (MDA-MB-231 breast): > 59.6 µM
- TGI (NCI/ADR-RES ovarian): 21.2 µM
- TGI (OVCAR-4 ovarian): > 29.5 µM
- TGI (OVCAR-5 ovarian): > 100 µM
- TGI (UACC-257 melanoma): > 100 µM
- TGI (UACC-62 melanoma): > 31 µM
